# How the values were obtained:
# Assay type in all cases: in vivo
# [1] = test system: barnyardgrass (Echinochloa crus-galli); test: Test A preemergence, barnyardgrass; conditions: 10 days
# Text: (§1) Seeds of plant species selected from barnyardgrass (Echinochloa crus-galli), blackgrass (Alopecurus myosuroides), corn (Zea mays), foxtail, giant (giant foxtail, Setaria faberi), foxtail, green (green foxtail, Setaria viridis), goosegrass (Eleusine indica), kochia (Bassia scoparia), oat, wild (wild oat, Avena fatua), palmer amaranth (pigweed, palmer, Amaranthus palmeri), redroot pigweed (Amaranthus retroflexus), ragweed (common ragweed, Ambrosia artemisiifolia), ryegrass, Italian (Italian ryegrass, Lolium multiflorum), and soybean (Glycine max) were planted into a blend of loam soil and sand and treated preemergence with a directed soil spray using test chemicals formulated in a non-phytotoxic solvent mixture which included a surfactant.
# (§2) At the same time, plants selected from these crop and weed species and also wheat (Triticum aestivum), galium (catchweed bedstraw, Galium aparine) and horseweed (Erigeron canadensis) were planted in pots containing the same blend of loam soil and sand and treated with postemergence applications of test chemicals formulated in the same manner. Plants ranged in height from 2 to 10 cm and were in the one- to two-leaf stage for the postemergence treatment. Treated plants and untreated controls were maintained in a greenhouse for 10 days, after which time all treated plants were compared to untreated controls and visually evaluated for injury. Plant response ratings, summarized in Table A, are based on a 0 to 100 scale where 0 is no effect and 100 is complete control. A dash (-) response means no test result.
# [2] = test system: foxtail, green (green foxtail, Setaria viridis); test: Test A preemergence, foxtail, green; conditions: 0 to 100 scale, 10 days
# Text: as §1, §2
# kochia (Bassia scoparia) [3] = test: Test A preemergence, kochia; conditions: 0 to 100 scale, 10 days
# Text: as §1, §2
# [4] = test system: redroot pigweed (Amaranthus retroflexus); test: Test A preemergence, redroot pigweed; conditions: 0 to 100 scale, 10 days
# Text: as §1, §2
# [5] = test system: ragweed (common ragweed, Ambrosia artemisiifolia); test: Test A preemergence, ragweed; conditions: 0 to 100 scale, 10 days
# Text: as §1, §2
# [6] = test system: ryegrass, Italian (Italian ryegrass, Lolium multiflorum); test: Test A preemergence, ryegrass, Italian; conditions: 0 to 100 scale, 10 days
# Text: as §1, §2
# [7] = test system: barnyardgrass (Echinochloa crus-galli); test: Test A postemergence, barnyardgrass; conditions: 10 days
# Text: as §1, §2
# [8] = test system: blackgrass (Alopecurus myosuroides); test: Test A postemergence, blackgrass; conditions: 10 days
# Text: as §1, §2
# corn (Zea mays) = test: Test A postemergence, corn; conditions: 10 days
# Text: as §1, §2
# [9] = test system: foxtail, green (green foxtail, Setaria viridis); test: Test A postemergence, foxtail, green; conditions: 10 days
# Text: as §1, §2
# kochia (Bassia scoparia) [10] = test: Test A postemergence, kochia; conditions: 10 days
# Text: as §1, §2
# [11] = test system: redroot pigweed (Amaranthus retroflexus); test: Test A postemergence, redroot pigweed; conditions: 10 days
# Text: as §1, §2
# [12] = test system: ragweed (common ragweed, Ambrosia artemisiifolia); test: Test A postemergence, ragweed; conditions: 10 days
# Text: as §1, §2
# [13] = test system: ryegrass, Italian (Italian ryegrass, Lolium multiflorum); test: Test A postemergence, ryegrass, Italian; conditions: 10 days
# Text: as §1, §2
# [14] = test system: wheat (Triticum aestivum); test: Test A postemergence, wheat; conditions: 10 days
# Text: as §1, §2
# [15] = test system: galium (catchweed bedstraw, Galium aparine); test: Test A postemergence, galium; conditions: 10 days
# Text: as §1, §2
# [16] = test system: barnyardgrass (Echinochloa crus-galli); test: Test B flooded paddy test, barnyardgrass; conditions: 250 g ai/ha, Flood; visually evaluated after 10 to 14 days
# Description: (§3) Plant species in the flooded paddy test selected from barnyardgrass (Echinochloa crus-galli), ducksalad (Heteranthera limosa), rice (Oryza sativa), and sedge, umbrella (small-flower umbrella sedge, Cyperus difformis) were grown to the 2-leaf stage for testing. At time of treatment, test pots were flooded to 3 cm above the soil surface, treated by application of test compounds directly to the paddy water, and then maintained at that water depth for the duration of the test. Treated plants and controls were maintained in a greenhouse for 10 to 14 days, after which time all species were compared to controls and visually evaluated. Plant response ratings, summarized in Table B, are based on a scale of 0 to 100 where 0 is no effect and 100 is complete control. A dash (-) response means no test result.
# [17] = test system: ducksalad (Heteranthera limosa); test: Test B flooded paddy test, ducksalad; conditions: 250 g ai/ha, Flood; visually evaluated after 10 to 14 days
# Description: as §3
# rice (Oryza sativa) = test: Test B flooded paddy test, rice; conditions: 250 g ai/ha, Flood; visually evaluated after 10 to 14 days
# Description: as §3
# [18] = test system: sedge, umbrella (small-flower umbrella sedge, Cyperus difformis); test: Test B flooded paddy test, sedge, umbrella; conditions: 250 g ai/ha, Flood; visually evaluated after 10 to 14 days
# Description: as §3
# [19] = 125 g ai/ha, 0 to 100 scale (0 no effect, 100 complete control)
# [20] = 31 g ai/ha, postemergence, 0 to 100 scale (0 no effect, 100 complete control)
# [21] = Postemergence, 125 g ai/ha, 0 to 100 scale
# [22] = Postemergence, 31 g ai/ha, 0 to 100 scale
Compound,"Plant response rating, Barnyardgrass ([1]; 31 g ai/ha, 0 to 100 scale)","Plant response rating, Barnyardgrass [1, 19]","Plant response rating, Foxtail, Green ([2]; 31 g ai/ha)","Plant response rating, Foxtail, Green ([2]; 125 g ai/ha)","Plant response rating, Kochia (kochia (Bassia scoparia) [3]; 31 g ai/ha)","Plant response rating, Kochia (kochia (Bassia scoparia) [3]; 125 g ai/ha)","Plant response rating, Pigweed, Redroot ([4]; 31 g ai/ha)","Plant response rating, Pigweed, Redroot ([4]; 125 g ai/ha)","Plant response rating, Ragweed ([5]; 31 g ai/ha)","Plant response rating, Ragweed ([5]; 125 g ai/ha)","Plant response rating, Ryegrass, Italian ([6]; 31 g ai/ha)","Plant response rating, Ryegrass, Italian ([6]; 125 g ai/ha)","Plant response rating, Barnyardgrass [7, 21]","Plant response rating, Blackgrass [8, 21]","Plant response rating, Corn (corn (Zea mays); [21])","Plant response rating, Foxtail, Green [9, 20]","Plant response rating, Foxtail, Green [9, 21]","Plant response rating, Kochia (kochia (Bassia scoparia) [10]; [20])","Plant response rating, Kochia (kochia (Bassia scoparia) [10]; [21])","Plant response rating, Pigweed, Redroot [11, 20]",further results
Cc1cc(Cl)c2ccc(F)cc2c1-c1c(OCOC(=O)C(C)(C)C)c(C)nn(C)c1=O [Compound 30],0,80,20,100,20,20,80,100,80,90,100,100,50,80,10,30,80,10,30,80,"Plant response rating, Barnyardgrass [7, 20]: 20; Plant response rating, Blackgrass [8, 20]: 40; Plant response rating, Corn (corn (Zea mays); [20]): 0; Plant response rating, Pigweed, Redroot [11, 21]: 90; Plant response rating, Ragweed [12, 20]: 20; Plant response rating, Ragweed [12, 21]: 100; Plant response rating, Ryegrass, Italian [13, 20]: 80; Plant response rating, Ryegrass, Italian [13, 21]: 100; Plant response rating, Wheat [14, 20]: 20; Plant response rating, Wheat [14, 21]: 60; Plant response rating, Galium [15, 20]: 100; Plant response rating, Galium [15, 21]: 100; Plant response rating, Barnyardgrass (0 to 100 scale where 0 is no effect and 100 is complete control) [16]: 40; Plant response rating, Ducksalad (0 to 100 scale where 0 is no effect and 100 is complete control) [17]: 75; Plant response rating, Rice (0 to 100 scale where 0 is no effect and 100 is complete control) (rice (Oryza sativa)): 35; Plant response rating, Sedge, Umbrella (0 to 100 scale where 0 is no effect and 100 is complete control) [18]: 100"
Cc1ccc2ccccc2c1-c1c(OCOC(=O)C(C)C)c(Cl)nn(C)c1=O [Compound 6],0,0,0,50,10,50,90,100,10,80,20,70,50,40,0,0,60,10,60,60,"Plant response rating, Barnyardgrass [7, 22]: 20; Plant response rating, Blackgrass [8, 22]: 0; Plant response rating, Corn (corn (Zea mays); [22]): 0; Plant response rating, Pigweed, Redroot [11, 21]: 100; Plant response rating, Ragweed [12, 20]: 70; Plant response rating, Ragweed [12, 21]: 80; Plant response rating, Ryegrass, Italian [13, 20]: 50; Plant response rating, Ryegrass, Italian [13, 21]: 70; Plant response rating, Wheat [14, 20]: 0; Plant response rating, Wheat [14, 21]: 10; Plant response rating, Galium [15, 20]: 70; Plant response rating, Galium [15, 21]: 90; Plant response rating, Barnyardgrass (0 to 100 scale where 0 is no effect and 100 is complete control) [16]: 10; Plant response rating, Ducksalad (0 to 100 scale where 0 is no effect and 100 is complete control) [17]: 70; Plant response rating, Rice (0 to 100 scale where 0 is no effect and 100 is complete control) (rice (Oryza sativa)): 0; Plant response rating, Sedge, Umbrella (0 to 100 scale where 0 is no effect and 100 is complete control) [18]: 75"
Cc1ccc2ccc(F)cc2c1-c1c(OCOC(=O)C(C)(C)C)c(Cl)nn(C)c1=O [Compound 4],10,100,70,100,20,100,100,100,100,100,90,100,60,70,0,40,80,10,40,70,"Plant response rating, Barnyardgrass [7, 22]: 20; Plant response rating, Blackgrass [8, 22]: 20; Plant response rating, Corn (corn (Zea mays); [22]): 0; Plant response rating, Pigweed, Redroot [11, 21]: 100; Plant response rating, Ragweed [12, 20]: 50; Plant response rating, Ragweed [12, 21]: 100; Plant response rating, Ryegrass, Italian [13, 20]: 50; Plant response rating, Ryegrass, Italian [13, 21]: 90; Plant response rating, Wheat [14, 20]: 40; Plant response rating, Wheat [14, 21]: 70; Plant response rating, Galium [15, 20]: 70; Plant response rating, Galium [15, 21]: 100; Plant response rating, Barnyardgrass (0 to 100 scale where 0 is no effect and 100 is complete control) [16]: 75; Plant response rating, Ducksalad (0 to 100 scale where 0 is no effect and 100 is complete control) [17]: 95; Plant response rating, Rice (0 to 100 scale where 0 is no effect and 100 is complete control) (rice (Oryza sativa)): 35; Plant response rating, Sedge, Umbrella (0 to 100 scale where 0 is no effect and 100 is complete control) [18]: 95"
Cc1ccc2ccccc2c1-c1c(OCOC(=O)C(C)(C)C)c(Cl)nn(C)c1=O [Compound 7],50,90,60,100,10,70,100,100,50,90,50,90,80,30,10,10,70,30,70,80,"Plant response rating, Barnyardgrass [7, 22]: 10; Plant response rating, Blackgrass [8, 22]: 0; Plant response rating, Corn (corn (Zea mays); [22]): 10; Plant response rating, Pigweed, Redroot [11, 21]: 90; Plant response rating, Ragweed [12, 20]: 70; Plant response rating, Ragweed [12, 21]: 90; Plant response rating, Ryegrass, Italian [13, 20]: 50; Plant response rating, Ryegrass, Italian [13, 21]: 70; Plant response rating, Wheat [14, 20]: 0; Plant response rating, Wheat [14, 21]: 50; Plant response rating, Galium [15, 20]: 70; Plant response rating, Galium [15, 21]: 90; Plant response rating, Barnyardgrass (0 to 100 scale where 0 is no effect and 100 is complete control) [16]: 0; Plant response rating, Ducksalad (0 to 100 scale where 0 is no effect and 100 is complete control) [17]: 0; Plant response rating, Rice (0 to 100 scale where 0 is no effect and 100 is complete control) (rice (Oryza sativa)): 0; Plant response rating, Sedge, Umbrella (0 to 100 scale where 0 is no effect and 100 is complete control) [18]: 0"

# Reference: patent US12692238B2, “Substituted pyridazinone herbicides” (FMC CORPORATION, priority 2020, dated 2026)
